Drawing on patent publication US7932270B2 (Cytokinetics, Inc., priority 2006, dated 2011), this text covers IC50 for 13 molecules.

In this test the target is T1, chicken gizzard smooth muscle myosin subfragment-1 chemically crosslinked to cardiac or skeletal actin (Gallus gallus, UniProt P10587).
T1 construct: chicken gizzard smooth muscle myosin subfragment-1; from tissue; host or cells: chicken gizzard
T1 sequence (P02607 2-151): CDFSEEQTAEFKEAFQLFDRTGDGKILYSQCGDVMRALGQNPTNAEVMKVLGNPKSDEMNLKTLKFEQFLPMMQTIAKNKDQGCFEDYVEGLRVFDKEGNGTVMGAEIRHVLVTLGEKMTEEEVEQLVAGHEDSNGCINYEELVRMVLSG
T1 sequence (P10587 84-789): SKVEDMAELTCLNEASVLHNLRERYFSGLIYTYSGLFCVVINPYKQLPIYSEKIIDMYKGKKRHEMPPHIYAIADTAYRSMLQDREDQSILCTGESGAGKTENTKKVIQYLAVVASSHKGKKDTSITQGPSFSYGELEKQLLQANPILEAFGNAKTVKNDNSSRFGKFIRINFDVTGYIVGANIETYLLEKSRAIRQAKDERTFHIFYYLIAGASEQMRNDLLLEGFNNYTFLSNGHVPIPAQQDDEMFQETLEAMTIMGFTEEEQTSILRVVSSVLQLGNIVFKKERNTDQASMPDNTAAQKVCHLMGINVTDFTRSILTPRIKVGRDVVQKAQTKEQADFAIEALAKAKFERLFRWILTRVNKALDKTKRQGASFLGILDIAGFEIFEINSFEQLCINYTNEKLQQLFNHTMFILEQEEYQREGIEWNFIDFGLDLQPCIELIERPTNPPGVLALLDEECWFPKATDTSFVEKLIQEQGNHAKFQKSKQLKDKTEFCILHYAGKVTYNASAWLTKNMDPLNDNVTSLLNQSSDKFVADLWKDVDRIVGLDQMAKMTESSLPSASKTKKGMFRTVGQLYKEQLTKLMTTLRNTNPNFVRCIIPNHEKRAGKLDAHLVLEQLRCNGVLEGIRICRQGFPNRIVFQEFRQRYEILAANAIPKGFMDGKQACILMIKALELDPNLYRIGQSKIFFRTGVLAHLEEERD
As to the kind of experiment: Smooth muscle myosin ATPase dose response assay (pyruvate kinase/horseradish peroxidase/pyruvate oxidase-coupled, amplex red fluorescence). It is filed as biochemical. As to conditions: read-out: IC50 Arithmetic Mean. Summed up:
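Lead-optimization format: ATPase coupled via pyruvate kinase, pyruvate oxidase and peroxidase, pH 7.00 at 22° C, with 0.15 mM ATP, 100 mM KCl, 2 mM MgCl2, 2 mM phosphate and 0.1 mM amplex red (final). Crosslinked S1 titrated empirically for set hydrolysis rate; fluorescence (ex 480/em 615 nm) dose curves fit 4-parameter for IC50.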
Consider `O=C(NC[C@@H]1CCCO1)c1ccc(-c2ccccc2)nc1NCCc1ccccn1` [N-[((2S)oxolan-2-yl)methyl]{6-phenyl-2-[(2-(2-pyridyl)ethyl)amino](3-pyridyl)}carboxamide], for which the IC50 – broadly, the concentration needed to halve the response being measured – is 6.82 µM.

Turning to `N#Cc1ccccc1-c1ccc(C(=O)NC[C@@H]2CCCN2)c(NCCc2cccc(F)c2)n1` [N-[((2S)pyrrolidin-2-yl)methyl](6-(2-cyanophenyl)-2-{[2-(3-fluorophenyl)ethyl]amino}(3-pyridyl))carboxamide], the concentration for half-maximal inhibition (IC50) came out at 4.57 µM.

For `N#Cc1ccccc1-c1ccc(C(=O)NC[C@@H]2CCCNC2)c(NCCc2cccc(F)c2)n1` [N-[((3R)(3-piperidyl))methyl](6-(2-cyanophenyl)-2-{[2-(3-fluorophenyl)ethyl]amino}(3-pyridyl))carboxamide], the IC50 was 2.15 µM.

For the molecule `CC(=O)N1CCC[C@H](CNC(=O)c2ccc(-c3ccccc3C#N)nc2NCCc2cccc(F)c2)C1` [N-[((3R)-1-acetyl(3-piperidyl))methyl](6-(2-cyanophenyl)-2-{[2-(3-fluorophenyl)ethyl]amino}(3-pyridyl))carboxamide], the IC50 amounted to 0.696 µM.

As to `CC(=O)N1CC[C@H](CNC(=O)c2ccc(-c3ccccc3)nc2NCCc2ccccn2)C1` [N-[((3R)-1-acetylpyrrolidin-3-yl)methyl]{6-phenyl-2-[(2-(2-pyridyl)ethyl)amino](3-pyridyl)}carboxamide], the IC50 is 26.9 µM.

With `CC(C)(C)OC(=O)NCC(=O)N1CCC[C@H](CNC(=O)c2ccc(-c3ccccc3C#N)nc2NCCc2cccc(F)c2)C1` [N-[((3R)-1-{2-[(tert-butoxy)carbonylamino]acetyl}(3-piperidyl))methyl](6-(2-cyanophenyl)-2-{[2-(3-fluorophenyl)ethyl]amino}(3-pyridyl))carboxamide], the IC50 stood at 0.199 µM.

In the case of `CC(C)(C)OC(=O)NCCC(=O)N1CCC[C@H](CNC(=O)c2ccc(-c3ccccc3C#N)nc2NCCc2cccc(F)c2)C1` [N-[((3R)-1-{3-[(tert-butoxy)carbonylamino]propanoyl}(3-piperidyl))methyl](6-(2-cyanophenyl)-2-{[2-(3-fluorophenyl)ethyl]amino}(3-pyridyl))carboxamide], the IC50 was determined as 3.79 µM.

For the molecule `CC(C)(C)OC(=O)NCCCC(=O)N1CCC[C@H](CNC(=O)c2ccc(-c3ccccc3C#N)nc2NCCc2cccc(F)c2)C1` [N-[((3R)-1-{4-[(tert-butoxy)carbonylamino]butanoyl}(3-piperidyl))methyl](6-(2-cyanophenyl)-2-{[2-(3-fluorophenyl)ethyl]amino}(3-pyridyl))carboxamide], the IC50 worked out at 6.16 µM.

Regarding `O=C(NC[C@@H]1CCNC1)c1ccc(-c2ccccc2)nc1NCCc1ccccn1` [N-[((3R)pyrrolidin-3-yl)methyl]{6-phenyl-2-[(2-(2-pyridyl)ethyl)amino](3-pyridyl)}carboxamide], the IC50 amounted to 53.6 µM.

Turning to `N#Cc1ccccc1-c1ccc(C(=O)NC[C@H]2CCCNC2)c(NCCc2cccc(F)c2)n1` [N-[((3S)(3-piperidyl))methyl](6-(2-cyanophenyl)-2-{[2-(3-fluorophenyl)ethyl]amino}(3-pyridyl))carboxamide], the IC50 was 1.97 µM.

As for `CC(=O)N1CCC[C@@H](CNC(=O)c2ccc(-c3ccccc3C#N)nc2NCCc2cccc(F)c2)C1` [N-[((3S)-1-acetyl(3-piperidyl))methyl](6-(2-cyanophenyl)-2-{[2-(3-fluorophenyl)ethyl]amino}(3-pyridyl))carboxamide], the IC50 stood at 10.7 µM.

Regarding `CC(=O)N1CC[C@@H](CNC(=O)c2ccc(-c3ccccc3)nc2NCCc2ccccn2)C1` [N-[((3S)-1-acetylpyrrolidin-3-yl)methyl]{6-phenyl-2-[(2-(2-pyridyl)ethyl)amino](3-pyridyl)}carboxamide], the IC50 was 25.2 µM.

`O=C(NC[C@H]1CCNC1)c1ccc(-c2ccccc2)nc1NCCc1ccccn1` [N-[((3S)pyrrolidin-3-yl)methyl]{6-phenyl-2-[(2-(2-pyridyl)ethyl)amino](3-pyridyl)}carboxamide]: the IC50 amounted to 62.6 µM.
